Columns and labels:
HPK1 = HPK1 (Homo sapiens (Human), UniProt Q92918, S171E/T165E); assay: HPK1-FL HTRF Enzymatic Assay ("HTRF"); assay type: biochemical; conditions: HPK full length, ATP 1 mM
Experimental: HPK1-FL HTRF Enzymatic Assay (“HTRF”)
HPK-FL enzyme phosphorylates Biotin-SLP-76 substrate in the presence of ATP at 1 mM and varying concentrations of test compound. Product is detected by FRET using Eu-anti-pSLP76 Ab and SA-XL665. Also see www.cisbio.com/HTRF for additional HTRF technology information.
Instrumentation: Echo555 compound dispenser; Agilent Bravo; Perkin Elmer Envision.
To a 384 well Proxiplate with 80 nL compound or DMSO spotted on was added 4 μl/well kinase mix. The mixture was preincubated for 30 minutes and then 4 μl/well substrate mix was added. The solution was incubated for 60 min and then 4 μl/well detection mix was added. The solution was incubated for another 60 min. The plates were then loaded onto a
Perkin Elmer Envision and the TR-FRET signal was measured at […] and 665 nm. A ratio of 665/620 was used to calculate the % activity at each concentration of compound.

[1] = system: primary human pan T cells; assay: Human T-Cell IL2 Induction Assay; assay type: cell-based; conditions: anti-CD3/anti-CD28 stimulation
Experimental: Assay Principle: Anti-CD3 and anti-CD28 activates TCR signaling in primary human pan T cells leading to IL-2 promoter induction. Secreted IL-2 in cell culture supernatant is detected by electrochemiluminescence using a capture antibody against IL-2 and an anti-IL-2 antibody labeled with SULFO-tag. Also see www.mesoscale.com for additional electrochemiluminescence technology information.
Assay Procedure: Incubate primary human pan T cells with varying concentrations of test compounds for 30 minutes in a humidified incubator at 37° C. and 5% CO2. Transfer cells to a plate pre-coated with a fixed concentration of anti-human CD3 (determined separately for each donor lot) and add soluble anti-human CD28 (final concentration=1 μg/ml). Stimulate cells in a humidified incubator at 37° C. and 5% CO2 for 4 hours. Transfer 25 μl of supernatant to a MSD single spot plate pre-coated with an anti-human IL-2 antibody. Incubate MSD plate overnight at 4° C. with gentle shaking. Wash MSD plate 4× with wash buffer. Add SULFO-tagged detection antibody at a 1:50 dilution and incubate at room temperature shaking for 2 hours. Wash MSD plate 4× with wash buffer and add 150 μl 2×MSD read buffer. Read on an MSD instrument. Normalize data to stimulated/untreated controls to calculate % activity at each concentration of compound.
• Frozen Primary Human Pan-T Cells (StemCell Technologies #70024) • anti-human CD3 (OKT3 clone) (eBioscience #16-0037-81) • anti-human CD28 (CD28.2 clone) (BD #555725) • 96-well Human IL-2 tissue culture kit (MSD #K151AHB-4) Instrumentation: • Biomek FX for liquid handling (Beckman Coulter) • MSD SECTOR S 600 (Meso Scale Discovery)
Exemplary compounds of Formula (I) were tested in the human T-cell IL-2 induction assays. The % increase measured for IL-2 in cells treated by the test compounds relative to untreated cells are provided in Table B2 for certain compounds.

Sequence of HPK1 (Q92918 whole entry T165E/S171E): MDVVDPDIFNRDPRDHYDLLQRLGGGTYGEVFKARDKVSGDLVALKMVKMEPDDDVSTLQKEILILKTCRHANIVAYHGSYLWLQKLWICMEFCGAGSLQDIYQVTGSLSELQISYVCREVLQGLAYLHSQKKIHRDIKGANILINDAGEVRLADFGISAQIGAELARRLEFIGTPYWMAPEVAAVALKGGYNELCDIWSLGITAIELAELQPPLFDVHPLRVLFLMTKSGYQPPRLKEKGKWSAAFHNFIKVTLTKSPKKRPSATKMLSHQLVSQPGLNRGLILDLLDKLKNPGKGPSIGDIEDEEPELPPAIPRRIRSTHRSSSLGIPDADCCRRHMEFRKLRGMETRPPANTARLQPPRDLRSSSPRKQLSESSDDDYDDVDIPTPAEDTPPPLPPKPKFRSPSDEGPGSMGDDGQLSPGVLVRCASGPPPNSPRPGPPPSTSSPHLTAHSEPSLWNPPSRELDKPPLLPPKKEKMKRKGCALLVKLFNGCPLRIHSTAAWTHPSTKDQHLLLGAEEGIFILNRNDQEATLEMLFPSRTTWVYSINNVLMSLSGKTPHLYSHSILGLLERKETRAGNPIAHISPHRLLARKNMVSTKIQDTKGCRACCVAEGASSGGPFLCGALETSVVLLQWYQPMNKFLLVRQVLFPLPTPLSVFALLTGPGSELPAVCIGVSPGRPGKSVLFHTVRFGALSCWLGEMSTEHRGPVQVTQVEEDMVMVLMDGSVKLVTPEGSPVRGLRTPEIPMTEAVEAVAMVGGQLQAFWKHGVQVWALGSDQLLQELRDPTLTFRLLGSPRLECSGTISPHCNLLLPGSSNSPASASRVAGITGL

SMILES	Ki (HPK1) [nM]	% IL-2 increase relative to untreated cells ([1]; assayed concentration 0.926 μM) [%]	% IL-2 increase relative to untreated cells ([1]; assayed concentration 2.778 μM) [%]
CC[C@@H]1[C@H](C(=O)Nc2cc3cc(-c4cnc5c(c4C)NCCO5)c(F)cc3cn2)[C@H]1c1cnn(C)c1 (single isomer, unassigned) [Compound 301c]	0.06	232	–
Cc1c(-c2cc3cc(NC(=O)OC4CC5(CCNCC5)C4)ncc3cc2F)cnc2c1NCCO2 [Compound 113, 7-Azaspiro[3.5]nonan-2-yl (7-fluoro-6-(8-methyl-2,3-dihydro-1H-pyrido[2,3-b][1,4]oxazin-7-yl)isoquinolin-3-yl)carbamate]	0.27	–	702
Cc1c(-c2cc3cc(NC(=O)N[C@H](C)c4cnn(C)c4)ncc3cc2F)cnc2c1NCCO2 [Compound 201a, (R)-1-(7-Fluoro-6-(8-methyl-2,3-dihydro-1H-pyrido[2,3-b][1,4]oxazin-7-yl)isoquinolin-3-yl)-3-(1-(1-methyl-1H-pyrazol-4-yl)ethyl)urea]	–	–	145
